Results published in BindingDB's records for doi:10.1021/bi00421a012 (Pennsylvania State University, 1988).

Target: T1, Carbamoyl-phosphate synthase small chain (Escherichia coli (strain K12), UniProt P0A6F1)
T1 sequence (P0A6F1 whole entry): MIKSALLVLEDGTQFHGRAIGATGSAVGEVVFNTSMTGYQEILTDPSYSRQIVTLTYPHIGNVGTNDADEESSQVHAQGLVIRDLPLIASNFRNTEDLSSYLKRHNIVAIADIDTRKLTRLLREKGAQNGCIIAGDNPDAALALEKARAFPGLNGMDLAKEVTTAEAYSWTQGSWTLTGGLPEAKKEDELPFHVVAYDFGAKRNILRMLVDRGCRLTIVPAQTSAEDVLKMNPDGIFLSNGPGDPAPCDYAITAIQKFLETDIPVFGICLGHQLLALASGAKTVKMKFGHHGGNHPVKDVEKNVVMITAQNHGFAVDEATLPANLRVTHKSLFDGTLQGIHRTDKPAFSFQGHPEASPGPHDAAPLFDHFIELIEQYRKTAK
Conditions: pH 7.5; 25 °C

`O=P(O)(O)OC[C@H]1O[C@@H](n2cnc3c2ncn2ccnc32)[C@H](O)[C@@H]1O` [[(2R,3S,4R,5R)-3,4-dihydroxy-5-imidazo[2,1-f]purin-3-yloxolan-2-yl]methyl dihydrogen phosphate] showed a Kd of 33 µM.
